Measurements taken from patent US9340590B2 (priority 2011, dated 2016).
Read-outs that look alike come from different tables or passages of the source. Positions of bridges follow the written chain, without caps; N, C: chain ends. Non-standard residues stand in square brackets, D forms with d. Residues, ends and D or L forms follow the SMILES beside them. *: point of attachment. Biotin = O=C1N[C@H]2[C@H](CS[C@H]2CCCCC(=O)*)N1; Pra = C#CC[C@H](N)C(=O)O

Experiments:
Assay in all cases: cell-based
hNav1.7 [1] = biological target: T1, hNav1.7 (Homo sapiens, UniProt Q15858); settings: for IC50: Nav1.7 Use IC50
T1 sequence (Q15858 whole entry, looked up): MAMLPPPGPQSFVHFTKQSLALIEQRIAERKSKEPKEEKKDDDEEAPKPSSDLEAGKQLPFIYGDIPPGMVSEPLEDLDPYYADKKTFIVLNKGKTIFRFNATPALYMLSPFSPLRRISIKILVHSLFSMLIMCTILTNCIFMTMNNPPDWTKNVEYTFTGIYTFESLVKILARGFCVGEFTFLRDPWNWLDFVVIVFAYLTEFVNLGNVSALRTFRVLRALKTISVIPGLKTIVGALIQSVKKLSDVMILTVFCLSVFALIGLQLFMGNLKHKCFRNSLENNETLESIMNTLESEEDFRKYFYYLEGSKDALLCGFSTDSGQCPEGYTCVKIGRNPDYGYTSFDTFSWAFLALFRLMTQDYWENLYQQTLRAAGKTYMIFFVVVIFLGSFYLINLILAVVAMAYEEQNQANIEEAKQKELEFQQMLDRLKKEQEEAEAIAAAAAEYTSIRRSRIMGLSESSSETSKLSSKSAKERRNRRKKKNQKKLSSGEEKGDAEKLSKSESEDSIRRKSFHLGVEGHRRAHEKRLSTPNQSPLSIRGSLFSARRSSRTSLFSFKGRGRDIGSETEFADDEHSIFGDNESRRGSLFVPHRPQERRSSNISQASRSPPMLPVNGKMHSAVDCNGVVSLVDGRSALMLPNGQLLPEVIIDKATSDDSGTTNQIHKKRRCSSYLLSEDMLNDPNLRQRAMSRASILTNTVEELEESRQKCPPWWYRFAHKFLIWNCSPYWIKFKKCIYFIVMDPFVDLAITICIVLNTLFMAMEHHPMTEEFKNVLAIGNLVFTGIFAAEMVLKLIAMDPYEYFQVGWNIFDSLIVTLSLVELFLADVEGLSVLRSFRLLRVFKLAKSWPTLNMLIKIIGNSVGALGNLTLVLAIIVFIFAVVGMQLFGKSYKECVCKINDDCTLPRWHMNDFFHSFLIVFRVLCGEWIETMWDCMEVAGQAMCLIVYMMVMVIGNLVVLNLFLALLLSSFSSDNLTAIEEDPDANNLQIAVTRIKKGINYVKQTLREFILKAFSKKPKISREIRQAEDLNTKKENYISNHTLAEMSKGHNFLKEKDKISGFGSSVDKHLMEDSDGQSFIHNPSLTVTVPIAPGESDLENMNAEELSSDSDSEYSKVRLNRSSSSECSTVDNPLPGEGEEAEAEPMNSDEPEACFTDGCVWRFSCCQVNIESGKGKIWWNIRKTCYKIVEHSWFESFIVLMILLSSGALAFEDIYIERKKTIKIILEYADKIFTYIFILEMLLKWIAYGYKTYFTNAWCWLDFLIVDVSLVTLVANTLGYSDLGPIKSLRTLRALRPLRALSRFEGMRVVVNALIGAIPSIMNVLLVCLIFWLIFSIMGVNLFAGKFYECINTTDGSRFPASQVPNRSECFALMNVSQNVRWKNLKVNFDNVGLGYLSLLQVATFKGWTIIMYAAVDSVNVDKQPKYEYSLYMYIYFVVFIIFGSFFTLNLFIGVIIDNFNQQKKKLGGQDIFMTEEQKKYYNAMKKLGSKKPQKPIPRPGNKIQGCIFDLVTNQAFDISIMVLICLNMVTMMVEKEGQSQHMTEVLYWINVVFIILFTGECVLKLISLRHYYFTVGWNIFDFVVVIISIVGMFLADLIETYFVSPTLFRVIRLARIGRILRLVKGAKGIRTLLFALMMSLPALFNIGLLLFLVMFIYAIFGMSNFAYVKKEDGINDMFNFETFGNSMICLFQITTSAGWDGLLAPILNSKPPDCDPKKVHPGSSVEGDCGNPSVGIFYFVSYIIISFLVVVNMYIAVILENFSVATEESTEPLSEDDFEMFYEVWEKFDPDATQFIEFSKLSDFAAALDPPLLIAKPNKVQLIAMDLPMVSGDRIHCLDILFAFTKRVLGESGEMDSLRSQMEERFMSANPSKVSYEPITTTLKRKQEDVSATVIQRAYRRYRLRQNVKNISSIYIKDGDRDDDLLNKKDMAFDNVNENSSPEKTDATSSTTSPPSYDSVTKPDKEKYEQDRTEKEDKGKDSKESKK

hNav1.4 [2] = biological target: T2, hNav1.4 (Homo sapiens, UniProt P35499)
T2 sequence (P35499 whole entry, looked up): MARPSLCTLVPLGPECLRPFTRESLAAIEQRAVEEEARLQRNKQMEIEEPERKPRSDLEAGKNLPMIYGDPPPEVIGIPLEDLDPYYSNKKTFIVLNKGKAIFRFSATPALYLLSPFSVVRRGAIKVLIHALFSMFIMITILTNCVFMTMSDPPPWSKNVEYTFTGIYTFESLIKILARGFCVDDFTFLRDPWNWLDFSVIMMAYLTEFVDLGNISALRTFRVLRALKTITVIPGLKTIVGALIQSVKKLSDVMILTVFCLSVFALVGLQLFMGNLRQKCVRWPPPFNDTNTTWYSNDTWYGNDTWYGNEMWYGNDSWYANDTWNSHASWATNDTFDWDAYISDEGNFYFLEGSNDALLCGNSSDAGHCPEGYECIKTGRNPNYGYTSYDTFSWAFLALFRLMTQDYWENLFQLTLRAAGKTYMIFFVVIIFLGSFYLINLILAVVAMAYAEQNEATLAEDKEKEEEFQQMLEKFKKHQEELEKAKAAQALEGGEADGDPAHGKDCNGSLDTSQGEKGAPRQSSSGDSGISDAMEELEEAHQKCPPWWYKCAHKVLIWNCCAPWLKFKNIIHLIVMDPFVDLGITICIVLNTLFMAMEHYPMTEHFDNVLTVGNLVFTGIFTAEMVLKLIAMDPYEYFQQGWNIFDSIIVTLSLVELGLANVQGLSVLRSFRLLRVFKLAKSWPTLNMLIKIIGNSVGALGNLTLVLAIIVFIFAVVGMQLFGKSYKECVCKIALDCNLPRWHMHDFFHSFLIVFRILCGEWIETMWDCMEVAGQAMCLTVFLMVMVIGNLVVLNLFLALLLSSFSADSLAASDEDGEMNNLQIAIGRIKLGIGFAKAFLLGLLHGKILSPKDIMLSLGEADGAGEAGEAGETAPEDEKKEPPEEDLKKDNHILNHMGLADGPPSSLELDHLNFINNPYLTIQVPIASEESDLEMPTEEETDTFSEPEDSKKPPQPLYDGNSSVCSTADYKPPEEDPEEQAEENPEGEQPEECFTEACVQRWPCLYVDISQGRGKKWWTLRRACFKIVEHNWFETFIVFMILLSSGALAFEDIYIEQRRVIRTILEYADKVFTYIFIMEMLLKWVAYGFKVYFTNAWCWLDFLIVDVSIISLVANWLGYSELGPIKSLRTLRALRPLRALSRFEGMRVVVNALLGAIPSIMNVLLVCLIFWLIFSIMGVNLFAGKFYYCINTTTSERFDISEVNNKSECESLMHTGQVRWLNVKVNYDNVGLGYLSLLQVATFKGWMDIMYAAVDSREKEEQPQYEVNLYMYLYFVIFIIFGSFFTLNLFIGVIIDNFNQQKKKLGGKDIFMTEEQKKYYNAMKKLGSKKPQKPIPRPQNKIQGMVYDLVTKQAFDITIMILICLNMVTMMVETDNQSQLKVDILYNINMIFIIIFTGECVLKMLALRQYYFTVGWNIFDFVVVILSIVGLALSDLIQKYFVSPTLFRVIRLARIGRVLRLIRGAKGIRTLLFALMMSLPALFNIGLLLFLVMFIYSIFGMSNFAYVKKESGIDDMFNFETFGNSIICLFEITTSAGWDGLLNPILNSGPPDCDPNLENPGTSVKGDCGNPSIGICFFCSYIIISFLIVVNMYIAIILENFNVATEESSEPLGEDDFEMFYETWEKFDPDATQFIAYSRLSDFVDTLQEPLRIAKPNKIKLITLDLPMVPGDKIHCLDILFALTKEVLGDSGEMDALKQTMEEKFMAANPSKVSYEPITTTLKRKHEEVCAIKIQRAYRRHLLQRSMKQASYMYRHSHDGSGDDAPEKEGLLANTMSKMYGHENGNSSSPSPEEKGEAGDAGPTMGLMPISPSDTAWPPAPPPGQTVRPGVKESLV

hNav1.5 [3] = biological target: T3, hNav1.5 (Homo sapiens, UniProt Q14524)
hNav1.3 = hNav1.3 (Homo sapiens, UniProt Q9NY46); settings: IonWorks Quattro, use-dependent block, hNav1.3; read-out: IWQ Use Nav1.3
hNav1.7 [4] = biological target: T1, hNav1.7; assay type: cell-based; settings: for IC50: IonWorks Quattro, use-dependent block, hNav1.7, read-out: IWQ Use Nav1.7; for Nav1.7/Nav1.3: ratio of IWQ Use values, Nav1.7 over Nav1.3
hNav1.4 [5] = biological target: T2, hNav1.4; settings: IonWorks Quattro, use-dependent block, hNav1.4; read-out: IWQ Use Nav1.4
hNav1.5 [6] = biological target: T3, hNav1.5; settings: IonWorks Quattro, use-dependent block, hNav1.5; read-out: IWQ Use Nav1.5

Row | Compound | Nav1.4/Nav1.7 Use (hNav1.7 [1]) | Nav1.5/Nav1.7 Use (hNav1.7 [1]) | IC50 (hNav1.7 [1]) | IC50 (hNav1.4 [2]; Nav1.4 Use IC50) | IC50 (hNav1.5 [3]) | IC50 (hNav1.3) | IC50 (hNav1.7 [4]) | Nav1.7/Nav1.3 (hNav1.7 [4]) | IC50 (hNav1.4 [5]) | IC50 (hNav1.5 [6]) | IC50 (hNav1.4 [2]; read-out: Nav1.4 Use IC50) | IC50 (hNav1.5 [3]; read-out: Nav1.5 Use IC50)
1 | CC[C@H](C)[C@@H]1NC(=O)[C@@H]2CSSC[C@@H]3NC(=O)[C@H](C(C)C)NC(=O)[C@H](CC(C)C)NC(=O)[C@H](CC(N)=O)NC(=O)[C@@H]4CCCN4C(=O)[C@H](CCCNC(=N)N)NC(=O)[C@H](CSSC[C@H](NC(=O)[C@@H](N)CC(=O)O)C(=O)N[C@@H](CC(C)C)C(=O)NCC(=O)N[C@@H](C)C(=O)N[C@@H](CC(C)C)C(=O)N[C@@H](CCCNC(=N)N)C(=O)N[C@@H](CCCCN)C(=O)N2)NC(=O)[C@H](CSSC[C@@H](C(=O)N[C@@H](CCCCN)C(=O)N[C@@H](Cc2ccc(O)cc2)C(=O)N[C@H](C(=O)N[C@@H](Cc2ccccc2)C(N)=O)C(C)C)NC(=O)[C@H](Cc2c[nH]c4ccccc24)NC(=O)[C@H](CCCNC(=N)N)NC(=O)[C@H](Cc2c[nH]cn2)NC(=O)[C@H](CC(C)C)NC(=O)[C@H](CCCNC(=N)N)NC(=O)[C@H](CO)NC3=O)NC(=O)[C@H](CCCCN)NC(=O)[C@H](CC(=O)O)NC(=O)[C@H](Cc2cn(CCOCCOCCOCCOCCOCCOCCOCCOCCOCCOCCOCCNC(=O)CSCCO)nn2)NC(=O)[C@H](CC(=O)O)NC(=O)[C@@H]2CCCN2C1=O | >476 | >476 | 0.021 µM | > 10 µM | > 10 µM | – | – | – | – | – | – | –
2 | CC(C)C[C@@H]1NC(=O)[C@H](C)NC(=O)CNC(=O)[C@H](CC(C)C)NC(=O)[C@@H](NC(=O)[C@@H](N)CC(=O)O)CSSC[C@@H]2NC(=O)[C@@H]3CSSC[C@@H](C(=O)N[C@@H](CCCCN)C(=O)N[C@@H](Cc4ccc(O)cc4)C(=O)N[C@H](C(=O)N[C@@H](Cc4ccccc4)C(N)=O)C(C)C)NC(=O)[C@H](Cc4c[nH]c5ccccc45)NC(=O)[C@H](CCCNC(=N)N)NC(=O)[C@H](Cc4c[nH]cn4)NC(=O)[C@H](CC(C)C)NC(=O)[C@H](CCCNC(=N)N)NC(=O)[C@H](CO)NC(=O)[C@H](CSSC[C@H](NC(=O)[C@H](CCCCN)NC(=O)[C@H](CCCNC(=N)N)NC1=O)C(=O)N[C@@H](CCC(=O)O)C(=O)N1CCC[C@H]1C(=O)N[C@@H](CC(=O)O)C(=O)N[C@@H](Cc1cn(CCOCCOCCOCCOCCOCCOCCOCCOCCOCCOCCOCCNC(=O)CSCCO)nn1)C(=O)N[C@@H](CC(=O)O)C(=O)N[C@@H](CCCCN)C(=O)N3)NC(=O)[C@H](C(C)C)NC(=O)[C@H](CC(C)C)NC(=O)[C@H](CC(N)=O)NC(=O)[C@@H]1CCCN1C(=O)[C@H](CCCNC(=N)N)NC2=O | >185 | >185 | 0.054 µM | > 10 µM | > 10 µM | – | – | – | – | – | – | –
3 | CC(C)C[C@@H]1NC(=O)[C@@H](NC(=O)[C@@H](N)CC(=O)O)CSSC[C@@H]2NC(=O)[C@@H]3CSSC[C@@H](C(=O)N[C@@H](CCCCN)C(=O)N[C@@H](Cc4ccc(O)cc4)C(=O)N[C@H](C(=O)N[C@@H](Cc4ccccc4)C(N)=O)C(C)C)NC(=O)[C@H](Cc4c[nH]c5ccccc45)NC(=O)[C@H](CCCNC(=N)N)NC(=O)[C@H](Cc4c[nH]cn4)NC(=O)[C@H](CC(C)C)NC(=O)[C@H](CCCNC(=N)N)NC(=O)[C@H](CO)NC(=O)[C@H](CSSC[C@H](NC(=O)[C@H](CCCCN)NC(=O)[C@H](CCCNC(=N)N)NC(=O)[C@H](Cc4ccccc4)NC(=O)[C@H](C)NC(=O)CNC1=O)C(=O)N[C@@H](CCC(=O)O)C(=O)N1CCC[C@H]1C(=O)N[C@@H](CC(=O)O)C(=O)N[C@@H](Cc1cn(CCOCCOCCOCCOCCOCCOCCOCCOCCOCCOCCOCCNC(=O)CSCCO)nn1)C(=O)N[C@@H](CC(=O)O)C(=O)N[C@@H](CCCCN)C(=O)N3)NC(=O)[C@H](C(C)C)NC(=O)[C@H](CC(C)C)NC(=O)[C@H](CC(N)=O)NC(=O)[C@@H]1CCCN1C(=O)[C@H](CCCNC(=N)N)NC2=O | >476 | >476 | 0.021 µM | > 10 µM | > 10 µM | – | – | – | – | – | – | –
4 | CC(C)C[C@@H]1NC(=O)[C@@H](NC(=O)[C@@H](N)CC(=O)O)CSSC[C@@H]2NC(=O)[C@@H]3CSSC[C@@H](C(=O)N[C@@H](CCCCN)C(=O)N[C@@H](Cc4ccc(O)cc4)C(=O)N[C@H](C(=O)N[C@@H](Cc4ccccc4)C(N)=O)C(C)C)NC(=O)[C@H](Cc4c[nH]c5ccccc45)NC(=O)[C@H](CCCNC(=N)N)NC(=O)[C@H](Cc4c[nH]cn4)NC(=O)[C@H](CC(C)C)NC(=O)[C@H](CCCNC(=N)N)NC(=O)[C@H](CO)NC(=O)[C@H](CSSC[C@H](NC(=O)[C@H](CCCCN)NC(=O)[C@H](CCCNC(=N)N)NC(=O)[C@H](Cc4ccccc4)NC(=O)[C@H](C)NC(=O)CNC1=O)C(=O)N[C@@H](CCC(=O)O)C(=O)N1CCC[C@H]1C(=O)N[C@@H](CC(=O)O)C(=O)N[C@@H](CCCCNC(=O)CCCC[C@@H]1SC[C@@H]4NC(=O)N[C@@H]41)C(=O)N[C@@H](CC(=O)O)C(=O)N[C@@H](CCCCN)C(=O)N3)NC(=O)[C@H](C(C)C)NC(=O)[C@H](CC(C)C)NC(=O)[C@H](CC(N)=O)NC(=O)[C@@H]1CCCN1C(=O)[C@H](CCCNC(=N)N)NC2=O (H-DCLGAFRKCEPDK(Biotin)DKCCRPNLVCSRLHRWCKYVF-NH2; disulfide 2-17, 9-23, 16-30) | 475 | >667 | 0.015 µM | 7.13 µM | > 10 µM | – | – | – | – | – | – | –
5 | C#CC[C@@H]1NC(=O)[C@H](CC(=O)O)NC(=O)[C@@H]2CCCN2C(=O)[C@H](CCC(=O)O)NC(=O)[C@@H]2CSSC[C@@H]3NC(=O)[C@H](C(C)C)NC(=O)[C@H](CC(C)C)NC(=O)[C@H](CC(N)=O)NC(=O)[C@@H]4CCCN4C(=O)[C@H](CCCNC(=N)N)NC(=O)[C@H](CSSC[C@H](NC(=O)[C@@H](N)CC(=O)O)C(=O)N[C@@H](CC(C)C)C(=O)NCC(=O)N[C@@H](C)C(=O)N[C@@H](CC(C)C)C(=O)N[C@@H](CCCNC(=N)N)C(=O)N[C@@H](CCCCN)C(=O)N2)NC(=O)[C@H](CSSC[C@@H](C(=O)N[C@@H](CCCCN)C(=O)N[C@@H](Cc2ccc(O)cc2)C(=O)N[C@H](C(=O)N[C@@H](Cc2ccccc2)C(N)=O)C(C)C)NC(=O)[C@H](Cc2c[nH]c4ccccc24)NC(=O)[C@H](CCCNC(=N)N)NC(=O)[C@H](Cc2c[nH]cn2)NC(=O)[C@H](CC(C)C)NC(=O)[C@H](CCCNC(=N)N)NC(=O)[C@H](CO)NC3=O)NC(=O)[C@H](CCCCN)NC(=O)[C@H](CC(=O)O)NC1=O (H-DCLGALRKCEPD[Pra]DKCCRPNLVCSRLHRWCKYVF-NH2; disulfide 2-17, 9-23, 16-30) | >769 | >769 | 0.013 µM | > 10 µM | > 10 µM | – | – | – | – | – | – | –
6 | CC[C@H](C)[C@@H]1NC(=O)[C@@H]2CSSC[C@@H]3NC(=O)[C@H](C(C)C)NC(=O)[C@H](CC(C)C)NC(=O)[C@H](CC(N)=O)NC(=O)[C@@H]4CCCN4C(=O)[C@H](CCCNC(=N)N)NC(=O)[C@H](CSSC[C@H](NC(=O)[C@H](CC(=O)O)NC(=O)[C@H](CO)NC(=O)CN)C(=O)N[C@@H](CC(C)C)C(=O)NCC(=O)N[C@@H](C)C(=O)N[C@@H](CC(C)C)C(=O)N[C@@H](CCCNC(=N)N)C(=O)N[C@@H](CCCCN)C(=O)N2)NC(=O)[C@H](CSSC[C@@H](C(=O)N[C@@H](CCCCN)C(=O)N[C@@H](Cc2ccc(O)cc2)C(=O)N[C@H](C(=O)N[C@@H](Cc2ccccc2)C(=O)N[C@@H](Cc2ccccc2)C(=O)O)C(C)C)NC(=O)[C@H](Cc2c[nH]c4ccccc24)NC(=O)[C@H](CCCNC(=N)N)NC(=O)[C@H](Cc2c[nH]cn2)NC(=O)[C@H]([C@@H](C)O)NC(=O)[C@H](CCCNC(=N)N)NC(=O)[C@H](CO)NC3=O)NC(=O)[C@H](CCCCN)NC(=O)[C@H](CC(=O)O)NC(=O)[C@H](CC(N)=O)NC(=O)[C@H](CC(=O)O)NC(=O)[C@@H]2CCCN2C1=O [compound 820] (H-GSDCLGALRKCIPDNDKCCRPNLVCSRTHRWCKYVFF-OH; disulfide 4-19, 11-25, 18-32) | – | – | – | – | – | 0.5 µM | 0.5 µM | 1.0 | > 5 µM | > 5 µM | – | –
7 | CC[C@H](C)[C@@H]1NC(=O)[C@@H]2CSSC[C@@H]3NC(=O)[C@H](C(C)C)NC(=O)[C@H](CC(C)C)NC(=O)[C@H](CC(N)=O)NC(=O)[C@@H]4CCCN4C(=O)[C@H](CCCNC(=N)N)NC(=O)[C@H](CSSC[C@H](NC(=O)[C@H](CC(=O)O)NC(=O)[C@H](CO)NC(=O)CN)C(=O)N[C@@H](CC(C)C)C(=O)NCC(=O)N[C@@H](C)C(=O)N[C@@H](CC(C)C)C(=O)N[C@@H](CCCNC(=N)N)C(=O)N[C@@H](CCCCN)C(=O)N2)NC(=O)[C@H](CSSC[C@@H](C(=O)N[C@@H](CCCCN)C(=O)N[C@@H](Cc2ccc(O)cc2)C(=O)N[C@H](C(=O)N[C@@H](Cc2ccccc2)C(=O)O)C(C)C)NC(=O)[C@H](Cc2c[nH]c4ccccc24)NC(=O)[C@H](CCCNC(=N)N)NC(=O)[C@H](Cc2c[nH]cn2)NC(=O)[C@H]([C@@H](C)O)NC(=O)[C@H](CCCNC(=N)N)NC(=O)[C@H](CO)NC3=O)NC(=O)[C@H](CCCCN)NC(=O)[C@H](CC(=O)O)NC(=O)[C@H](CC(N)=O)NC(=O)[C@H](CC(=O)O)NC(=O)[C@@H]2CCCN2C1=O [compound 822] (H-GSDCLGALRKCIPDNDKCCRPNLVCSRTHRWCKYVF-OH; disulfide 4-19, 11-25, 18-32) | – | – | – | – | – | 3.7 µM | 3.7 µM | 1.0 | > 5 µM | > 5 µM | – | –
8 | Biotin-Ahx-[Ala5,Phe6,Atz(2 kDa EtO-PEG*-{Biotin-Ahx-[Ala5,Phe6,Atz13*,Leu26,Arg28]GpTx-1(1-34)})13,Leu26,Arg28]GpTx-1(1-34) [Homodimeric Conjugate 4] | – | – | – | – | – | – | – | – | – | – | 3.43 µM | > 10 µM
